Assay results reported in US11179349B2, “Use of tumor gene methylation regulator and anti-tumor drugs” (priority 2016, dated 2021).
“And” between values parts separate entries of the source, which are not always exact repeats. Equal values may be shown once.

Key:
[1] = tested on: human breast cancer xenografts (MCF-7); test: Experiment 1: suppression of breast cancer (MCF-7) xenografts with capecitabine and 3′-deoxyadenosine; format: in vivo, BALB/c nude mouse; settings: capecitabine 400 mg/Kg/day
Procedure: (§1) Human leukemia cells HL60, human gastric cancer cell line SGC-7901, human breast cancer cells MCF-7, human colon cancer cells HT-29, human lung cancer cells A-549, and human hepatoma cells Huh-7 were routinely cultured in vitro and digested and centrifuged to prepare cell suspensions at a concentration of about 1×10^7 cells/mL, respectively, which were inoculated subcutaneously in the right armpits of the mice at 0.2 mL per mouse.
(§2) The inoculated well-grown subcutaneously xenografted tumors were removed and cut into tumor tissue blocks with a size of about 2×2×2 mm for later use. After being anesthetized, the mice were placed in the left lateral decubitus position, the tumor tissue blocks were put into the armpits of the mice, the skin was sutured and disinfected, and then the mice were put back into the cages and fed normally. The mice were grouped after the tumors grew to have a diameter of about 7 to 8 mm. […] The longer diameter (a) and shorter diameter (b) of each of the solid tumors were measured twice per week after the first administration, the tumor volume was calculated according to the formula: volume (V)=½×a×b^2, and the animals were weighed. […] The data obtained were analyzed by SPSS statistical analysis software. […]

[2] = tested on: human gastric cancer xenografts (SGC-7901); test: Experiment 6: suppression of gastric cancer (SGC-7901) xenografts with capecitabine and 3′-deoxyadenosine; format: in vivo, BALB/c nude mouse; settings: capecitabine 400 mg/Kg, 27th day
Excerpt: (§3) The inoculated well-grown subcutaneously xenografted tumors were removed and cut into tumor tissue blocks with a size of about 2×2×2 mm for later use. After being anesthetized, the mice were placed in the left lateral decubitus position, the tumor tissue blocks were put into the armpits of the mice, the skin was sutured and disinfected, and then the mice were put back into the cages and fed normally. The mice were grouped after the tumors grew to have a diameter of about 7 to 8 mm. […] The general symptoms of the animals were observed before and after the administration. The longer diameter (a) and shorter diameter (b) of each of the solid tumors were measured twice per week after the first administration, the tumor volume was calculated according to the formula: volume (V)=½×a×b^2, and the animals were weighed. The drug was discontinued after administration for 14 days. On the 7th day after stopping the administration, the animals were weighed and then were sacrificed by cervical dislocation, and the solid tumors were removed and weighed. The data obtained were analyzed by SPSS statistical analysis software.

[3] = tested on: human colon cancer xenografts (HT-29); test: Experiment 7: suppression of colon cancer (HT-29) xenografts with capecitabine and 3′-deoxyadenosine; format: in vivo, BALB/c nude mouse; settings: capecitabine 400 mg/Kg, 31st day
Excerpt: as §3

[4] = tested on: human lung cancer xenografts (A-549); test: Experiment 4: suppression of lung cancer (A-549) xenografts with cisplatin and 3′-deoxyadenosine; format: in vivo, BALB/c nude mouse
Procedure: as §1
The inoculated well-grown subcutaneously xenografted tumors were removed and cut into tumor tissue blocks with a size of about 2×2×2 mm for later use. After being anesthetized, the mice were placed in the left lateral decubitus position, the tumor tissue blocks were put into the armpits of the mice, the skin was sutured and disinfected, and then the mice were put back into the cages and fed normally. The mice were grouped after the tumors grew to have a diameter of about 7 to 8 mm. Generally, after being grouped, the mice were administered by gavage with a drug or with a blank solution (solvent: 0.9% (g/mL) sodium chloride injection) for continuous 14 days, once per day, administrated at a volume of 20 mL/kg. Special situations will be described separately in corresponding examples. The general symptoms of the animals were observed before and after the administration. The longer diameter (a) and shorter diameter (b) of each of the solid tumors were measured twice per week after the first administration, the tumor volume was calculated according to the formula: volume (V)=½×a×b^2, and the animals were weighed. The drug was discontinued after administration for 14 days. On the 7th day after stopping the administration, the animals were weighed and then were sacrificed by cervical dislocation, and the solid tumors were removed and weighed. The data obtained were analyzed by SPSS statistical analysis software.
Formula for Evaluation of the Therapeutic Efficacy: Tumor-growth inhibition rate=(average tumor weight in solvent control group−average tumor weight in administered control group)/average tumor weight in solvent control group×100%.
On the 14th day after inoculation of the mice with lung cancer A-549 cells, xenografted tumor models were successful, and then treated with drugs. Refer to FIG. 4 for experimental results.

[5] = tested on: human gastric cancer (SGC 7901); test: Experiment 9: suppression of gastric cancer (SGC 7901) xenografts with 5-fluorouracil and 3′-deoxyadenosine; format: in vivo, BALB/c nude mouse; settings: 5-fluorouracil 6 mg/kg, intravenous, 28th day
Excerpt: as §3
Each group was administered with a drug once daily (volume 0.2 mL, intravenously) and measured twice per week.

[6] = tested on: MCF-7 (human breast cancer); test: CellTiter-Glo luminescent cell viability assay, human breast cancer cells; format: cell-based; settings: MCF7, MCF-7, 48 hours, drug used alone
Procedure: The above tumor cell line derived from ATCC was cultured in an incubator with 5% CO2 at 37° C.
(4). The culture plate was cultured overnight in an incubator with 5% CO2 and 100% relative humidity at 37° C.

[7] = tested on: hepatoma cell line Huh-7, and breast cancer cell lines T47D and MCF-7; test: Previous work: in vitro cultured human solid tumor cells treated with 3′-deoxyadenosine alone; format: cell-based; settings: Huh-7, T47D and MCF-7, inventors' previous work
Excerpt: However, its effect was still not satisfactory.

Huh-7 (human hepatoma) = test: CellTiter-Glo luminescent cell viability assay, human hepatoma cells; settings: Huh-7, 48 h
Procedure: The above tumor cell line derived from ATCC was cultured in an incubator with 5% CO2 at 37° C. The cell line was subcultured twice per week by trypsinization. Cells in the logarithmic growth phase were used for plating.
The concentration of the cells was adjusted to 2×10^4 cells/ml (about 2.0×10^3 cells/well).
(3) 100 μl of a cell suspension was added to each well in the culture plate, and a cell-free culture solution was added to the blank control wells.
Dosing: 5 μl of the compound working solution (20×) was taken and added to the cell culture plate. 5 μl of a mixed solution of DMSO-cell culture solution was added to the solvent control and the blank control.
The 96-well culture plate was put back to the incubator for culture for 48 hours.
The following steps were performed according to the instructions of the Promega CellTiter-Glo Luminescent Cell Viability Assay Kit (Promega-G7571).
(6) 80 μl of the CellTiter-Glo working solution was added to each well. The cell plate was covered with aluminum foil to protect it from light.
The culture plate was shaken on an orbital shaker for 2 minutes to induce cell lysis.
The culture plate was allowed to stand at room temperature for 10 minutes to stabilize a luminescent signal.

[8] = tested on: human leukemia xenografts (HL60); test: Experiment 2: suppression of leukemia (HL60) xenografts with doxorubicin and 3′-deoxyadenosine; format: in vivo, BALB/c nude mouse
Procedure: as §1, §2

[9] = tested on: human hepatoma xenografts (Huh-7); test: Experiment 5: suppression of hepatoma (Huh-7) xenografts with doxorubicin and 3′-deoxyadenosine; format: in vivo, BALB/c nude mouse; settings: doxorubicin 2.5 mg/kg, 37th day
Excerpt: as §3
On the 23rd day after inoculation of the mice with human hepatoma Huh-7 cells, xenografted tumor models were successful, and then treated with drugs.

Compound: CCCCCOC(=O)Nc1nc(=O)n([C@@H]2O[C@H](C)[C@@H](O)[C@H]2O)cc1F [capecitabine]
- experimental animals died ([1]; 11th day of the experiment, 7 mice per group): 5
- tumor inhibition rate ([1]; 11th day, vs normal saline group): 86.1%
- inhibition rate [2]: 57.8%
- inhibition rate [3]: 80.1%

Compound: N.N.[Cl][Pt][Cl] [cisplatin]
- mice died ([4]; cisplatin 5 mg/kg/day, 7th day, 7 mice per group): two nude mice died
- mice died ([4]; cisplatin 5 mg/kg/day, 10th day, 7 mice per group): 4
- mice died (total) ([4]; cisplatin 5 mg/kg/day, reduced to 2.5 mg/kg on the 15th day, 18th day, 7 mice per group): 5 and 5/7
- inhibitory effect on tumor growth ([4]; high-dosage cisplatin (5 mg/kg)): good inhibitory effect on tumor growth

Compound: O=c1[nH]cc(F)c(=O)[nH]1 [5-fluorouracil]
- inhibition rate [5]: 67.5%

Compound: CC(=O)O[C@H]1C(=O)[C@@]2(C)[C@H]([C@H](OC(=O)c3ccccc3)[C@]3(O)C[C@H](OC(=O)[C@H](O)[C@@H](NC(=O)c4ccccc4)c4ccccc4)C(C)=C1C3(C)C)[C@]1(OC(C)=O)CO[C@@H]1C[C@@H]2O [paclitaxel]
- IC50 [6]: 742 nM

Compound: Nc1ncnc2c1ncn2[C@@H]1O[C@H](CO)C[C@H]1O [3′-deoxyadenosine]
- IC50 [6]: 850 nM
- inhibition of proliferation [7]: could inhibit the proliferation
- IC50 (Huh-7 (human hepatoma)): 1350 nM

Compound: COc1cccc2c1C(=O)c1c(O)c3c(c(O)c1C2=O)C[C@@](O)(C(=O)CO)C[C@@H]3O[C@H]1C[C@H](N)[C@H](O)[C@H](C)O1 [doxorubicin]
- IC50 [6]: 510 nM
- tumor-growth inhibition rate ([8]; doxorubicin 60 mg/kg/week (20 mg/kg each time, 3 times/week), 14th day): 21.4%
- experimental animals died ([8]; doxorubicin 60 mg/kg/week, 14th day of the experiment, 7 mice per group): one experimental animal in this group died
- tumor-growth inhibition rate [9]: 25.7%
- IC50 (Huh-7 (human hepatoma)): 1200 nM
